The first assay deals with Phosphatidylinositol 3-kinase regulatory subunit alpha/4,5-bisphosphate 3-kinase catalytic subunit alpha isoform (Homo sapiens, UniProt P42336). As to the kind of experiment: PI3K Inhibition Assay.
Chain of Phosphatidylinositol 3-kinase regulatory subunit alpha/4,5-bisphosphate 3-kinase catalytic subunit alpha isoform (P27986 whole entry, canonical isoform): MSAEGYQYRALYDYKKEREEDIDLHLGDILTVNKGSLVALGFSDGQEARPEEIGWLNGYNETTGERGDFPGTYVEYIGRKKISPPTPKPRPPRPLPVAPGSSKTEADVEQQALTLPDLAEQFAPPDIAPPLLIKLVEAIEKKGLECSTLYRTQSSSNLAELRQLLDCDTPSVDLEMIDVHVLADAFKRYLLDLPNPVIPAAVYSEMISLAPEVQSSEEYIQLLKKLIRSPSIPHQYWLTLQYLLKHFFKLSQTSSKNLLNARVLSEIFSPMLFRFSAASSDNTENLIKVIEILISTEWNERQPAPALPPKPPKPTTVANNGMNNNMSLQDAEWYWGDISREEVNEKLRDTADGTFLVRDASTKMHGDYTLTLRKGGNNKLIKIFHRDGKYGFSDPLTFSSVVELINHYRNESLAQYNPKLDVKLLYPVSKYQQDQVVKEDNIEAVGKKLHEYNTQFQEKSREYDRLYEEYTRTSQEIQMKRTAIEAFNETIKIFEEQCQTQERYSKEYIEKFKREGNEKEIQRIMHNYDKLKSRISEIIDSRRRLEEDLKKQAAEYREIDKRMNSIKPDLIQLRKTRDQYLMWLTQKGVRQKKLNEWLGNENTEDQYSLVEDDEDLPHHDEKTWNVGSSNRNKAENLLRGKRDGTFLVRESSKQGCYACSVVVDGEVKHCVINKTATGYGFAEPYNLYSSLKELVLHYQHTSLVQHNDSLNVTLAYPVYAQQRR
Chain of Phosphatidylinositol 3-kinase regulatory subunit alpha/4,5-bisphosphate 3-kinase catalytic subunit alpha isoform (P42336 whole entry, canonical isoform): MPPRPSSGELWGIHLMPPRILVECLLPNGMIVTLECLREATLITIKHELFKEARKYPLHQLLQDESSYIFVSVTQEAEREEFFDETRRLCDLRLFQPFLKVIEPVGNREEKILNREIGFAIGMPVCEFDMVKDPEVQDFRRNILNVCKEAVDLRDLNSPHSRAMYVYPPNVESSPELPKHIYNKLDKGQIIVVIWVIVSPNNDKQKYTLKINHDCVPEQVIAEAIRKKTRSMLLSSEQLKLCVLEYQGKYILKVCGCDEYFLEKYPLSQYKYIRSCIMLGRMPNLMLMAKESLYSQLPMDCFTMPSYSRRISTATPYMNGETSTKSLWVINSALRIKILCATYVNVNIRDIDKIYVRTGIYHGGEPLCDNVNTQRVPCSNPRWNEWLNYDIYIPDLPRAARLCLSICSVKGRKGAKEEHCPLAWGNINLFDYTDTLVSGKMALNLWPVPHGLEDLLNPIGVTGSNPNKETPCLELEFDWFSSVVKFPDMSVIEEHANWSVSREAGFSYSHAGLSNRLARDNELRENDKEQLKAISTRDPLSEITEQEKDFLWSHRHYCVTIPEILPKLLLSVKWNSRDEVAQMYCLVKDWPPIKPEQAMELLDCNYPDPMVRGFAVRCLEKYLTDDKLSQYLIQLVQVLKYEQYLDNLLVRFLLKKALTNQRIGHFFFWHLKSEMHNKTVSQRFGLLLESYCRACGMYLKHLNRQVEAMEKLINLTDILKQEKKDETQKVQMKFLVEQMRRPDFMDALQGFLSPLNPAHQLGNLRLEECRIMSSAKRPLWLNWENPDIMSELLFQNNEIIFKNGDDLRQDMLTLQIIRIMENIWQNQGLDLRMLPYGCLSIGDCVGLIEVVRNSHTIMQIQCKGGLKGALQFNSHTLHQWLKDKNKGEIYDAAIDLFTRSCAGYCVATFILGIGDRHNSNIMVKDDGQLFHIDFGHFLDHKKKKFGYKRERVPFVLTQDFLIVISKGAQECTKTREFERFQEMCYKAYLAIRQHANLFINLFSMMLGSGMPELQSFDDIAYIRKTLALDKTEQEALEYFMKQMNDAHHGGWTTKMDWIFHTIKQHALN
Settings: not given
As for the experimental part:
(§1) Inhibition of PI3K enzyme activity is measured in a microtiter plate-based fluorescence polarization (FP) assay.
Chain of Phosphatidylinositol 3-kinase regulatory subunit beta/4,5-bisphosphate 3-kinase catalytic subunit delta isoform (O00459 whole entry, canonical isoform): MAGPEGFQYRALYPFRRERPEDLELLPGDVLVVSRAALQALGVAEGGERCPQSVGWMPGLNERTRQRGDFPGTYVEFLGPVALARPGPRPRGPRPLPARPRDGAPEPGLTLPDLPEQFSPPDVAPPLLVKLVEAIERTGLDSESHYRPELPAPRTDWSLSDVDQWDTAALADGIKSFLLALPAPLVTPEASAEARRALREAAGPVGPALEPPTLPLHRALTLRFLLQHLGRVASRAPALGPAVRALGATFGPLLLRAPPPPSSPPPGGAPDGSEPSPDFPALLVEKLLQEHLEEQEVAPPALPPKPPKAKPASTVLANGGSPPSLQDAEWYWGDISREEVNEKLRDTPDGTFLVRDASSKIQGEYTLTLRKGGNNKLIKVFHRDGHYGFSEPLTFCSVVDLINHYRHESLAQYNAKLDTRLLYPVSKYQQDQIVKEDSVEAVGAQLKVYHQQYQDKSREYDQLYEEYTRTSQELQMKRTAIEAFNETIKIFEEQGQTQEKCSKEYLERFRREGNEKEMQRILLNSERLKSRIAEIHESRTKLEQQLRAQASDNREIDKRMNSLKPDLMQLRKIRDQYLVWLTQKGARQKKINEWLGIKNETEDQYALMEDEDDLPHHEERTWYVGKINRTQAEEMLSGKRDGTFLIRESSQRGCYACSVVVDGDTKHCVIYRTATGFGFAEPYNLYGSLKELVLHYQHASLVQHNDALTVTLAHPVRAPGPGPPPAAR
Chain of Phosphatidylinositol 3-kinase regulatory subunit beta/4,5-bisphosphate 3-kinase catalytic subunit delta isoform (O00329 whole entry, canonical isoform): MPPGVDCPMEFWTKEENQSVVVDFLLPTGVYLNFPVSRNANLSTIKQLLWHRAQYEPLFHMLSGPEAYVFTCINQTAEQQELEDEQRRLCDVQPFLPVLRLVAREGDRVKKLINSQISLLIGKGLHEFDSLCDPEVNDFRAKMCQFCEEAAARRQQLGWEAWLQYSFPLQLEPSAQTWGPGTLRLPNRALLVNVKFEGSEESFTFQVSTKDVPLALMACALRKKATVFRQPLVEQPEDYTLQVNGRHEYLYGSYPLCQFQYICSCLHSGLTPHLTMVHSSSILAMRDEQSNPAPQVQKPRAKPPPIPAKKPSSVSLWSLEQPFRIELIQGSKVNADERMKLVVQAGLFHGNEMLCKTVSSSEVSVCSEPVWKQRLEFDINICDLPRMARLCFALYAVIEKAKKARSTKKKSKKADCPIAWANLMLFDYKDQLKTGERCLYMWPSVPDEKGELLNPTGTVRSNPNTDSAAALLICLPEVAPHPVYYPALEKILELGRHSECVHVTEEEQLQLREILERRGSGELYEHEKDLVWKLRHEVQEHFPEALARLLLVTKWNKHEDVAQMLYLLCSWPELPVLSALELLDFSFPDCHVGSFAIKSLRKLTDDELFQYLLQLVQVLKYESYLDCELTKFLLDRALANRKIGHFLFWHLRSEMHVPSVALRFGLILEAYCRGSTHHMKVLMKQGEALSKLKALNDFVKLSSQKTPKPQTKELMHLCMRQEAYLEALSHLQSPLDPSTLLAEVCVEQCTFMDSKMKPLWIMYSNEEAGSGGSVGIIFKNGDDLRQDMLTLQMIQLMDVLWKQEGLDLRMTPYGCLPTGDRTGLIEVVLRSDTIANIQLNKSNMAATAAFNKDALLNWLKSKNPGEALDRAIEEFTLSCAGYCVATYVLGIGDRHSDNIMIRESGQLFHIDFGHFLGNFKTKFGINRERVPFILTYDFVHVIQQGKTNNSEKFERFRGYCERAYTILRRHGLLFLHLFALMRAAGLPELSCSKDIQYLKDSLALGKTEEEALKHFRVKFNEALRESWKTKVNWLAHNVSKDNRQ
Chain of Phosphatidylinositol 3-kinase regulatory subunit beta/4,5-bisphosphate 3-kinase catalytic subunit beta isoform (P42338 whole entry, canonical isoform): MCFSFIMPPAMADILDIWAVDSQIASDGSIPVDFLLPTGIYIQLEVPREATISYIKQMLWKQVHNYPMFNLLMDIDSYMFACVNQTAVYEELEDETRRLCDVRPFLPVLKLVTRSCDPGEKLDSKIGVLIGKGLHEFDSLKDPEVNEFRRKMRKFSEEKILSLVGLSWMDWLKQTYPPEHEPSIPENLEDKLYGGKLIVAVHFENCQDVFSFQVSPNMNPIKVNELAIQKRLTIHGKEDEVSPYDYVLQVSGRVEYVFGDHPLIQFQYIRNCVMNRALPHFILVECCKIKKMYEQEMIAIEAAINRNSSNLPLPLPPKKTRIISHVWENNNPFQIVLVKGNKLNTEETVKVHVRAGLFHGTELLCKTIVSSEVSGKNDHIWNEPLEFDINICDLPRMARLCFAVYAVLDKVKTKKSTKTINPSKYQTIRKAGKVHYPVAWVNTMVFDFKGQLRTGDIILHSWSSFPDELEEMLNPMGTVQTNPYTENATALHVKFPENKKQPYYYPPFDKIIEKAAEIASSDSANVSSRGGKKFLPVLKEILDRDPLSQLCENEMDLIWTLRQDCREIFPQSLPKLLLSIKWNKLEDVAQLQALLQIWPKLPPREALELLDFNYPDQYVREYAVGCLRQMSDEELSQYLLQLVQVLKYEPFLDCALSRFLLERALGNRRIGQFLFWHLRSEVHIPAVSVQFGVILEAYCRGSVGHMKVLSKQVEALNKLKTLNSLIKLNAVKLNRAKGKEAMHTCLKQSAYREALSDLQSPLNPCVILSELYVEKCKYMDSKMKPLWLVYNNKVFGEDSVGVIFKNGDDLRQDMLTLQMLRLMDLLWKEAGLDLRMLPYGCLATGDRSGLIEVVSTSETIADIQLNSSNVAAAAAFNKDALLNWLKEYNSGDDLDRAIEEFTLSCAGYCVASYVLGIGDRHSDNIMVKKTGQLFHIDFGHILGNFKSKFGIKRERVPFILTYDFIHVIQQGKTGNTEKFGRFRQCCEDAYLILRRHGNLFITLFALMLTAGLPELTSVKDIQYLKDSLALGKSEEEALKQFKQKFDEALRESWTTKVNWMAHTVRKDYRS
Chain of Phosphatidylinositol 3-kinase regulatory subunit beta/4,5-bisphosphate 3-kinase catalytic subunit beta isoform (O00459 whole entry, further chain, canonical isoform): as the sequence (O00459 whole entry, canonical isoform) above
What is called IC50 is the concentration needed to halve the response being measured. In turn, `COC[C@H]1OC(=O)C(=CN(CCCN(C)C)CCCN(C)C)C2C(=O)C(=O)C3=C([C@H](OC(C)=O)C[C@@]4(C)C3CC[C@@H]4O)[C@]21C` (stereo partly drawn) [(2R,3S,6E,14S,15S,17R)-6-({bis[3-(dimethylamino)propyl]amino}methylidene)-8,14-dihydroxy-3-(methoxymethyl)-2,15-dimethyl-5,9-dioxo-4-oxatetracyclo[8.7.0.0^{2,7}.0^{11,15}]heptadeca-1(10),7-dien-17-yl acetate] displayed a half-inhibitory concentration (IC50) of 0.022 µM.

As for `COC[C@H]1OC(=O)C(=CN2CCC(C(=O)O)CC2)C2C(=O)C(=O)C3=C([C@H](OC(C)=O)C[C@@]4(C)C3CC[C@@H]4O)[C@]21C` (stereo partly drawn) [1-{[(2R,3S,6E,14S,15S,17R)-17-(acetyloxy)-8,14-dihydroxy-3-(methoxymethyl)-2,15-dimethyl-5,9-dioxo-4-oxatetracyclo[8.7.0.0^{2,7}.0^{11,15}]heptadeca-1(10),7-dien-6-ylidene]methyl}piperidine-4-carboxylic acid], the IC50 amounted to 0.033 µM.

`COC[C@H]1OC(=O)C(=CN2CCN(C3CCCCC3)CC2)C2C(=O)C(=O)C3=C([C@H](OC(C)=O)C[C@@]4(C)C3CC[C@@H]4O)[C@]21C` (stereo partly drawn) [(2R,3S,6E,14S,15S,17R)-6-[(4-cyclohexylpiperazin-1-yl)methylidene]-8,14-dihydroxy-3-(methoxymethyl)-2,15-dimethyl-5,9-dioxo-4-oxatetracyclo[8.7.0.0^{2,7}.0^{11,15}]heptadeca-1(10),7-dien-17-yl acetate] had an IC50 of 0.043 µM.

In turn, `COC[C@H]1OC(=O)C(=CN(C)CCCN2CCN(C)CC2)C2C(=O)C(=O)C3=C([C@H](OC(C)=O)C[C@@]4(C)C3CC[C@@H]4O)[C@]21C` (stereo partly drawn) [(2R,3S,6E,14S,15S,17R)-8,14-dihydroxy-3-(methoxymethyl)-2,15-dimethyl-6-({methyl[3-(4-methylpiperazin-1-yl)propyl]amino}methylidene)-5,9-dioxo-4-oxatetracyclo[8.7.0.0^{2,7}.0^{11,15}]heptadeca-1(10),7-dien-17-yl acetate] had an IC50 of 0.01 µM.

Compound `COC[C@H]1OC(=O)C(=CN2CCN(CCN3CCOCC3)CC2)C2C(=O)C(=O)C3=C([C@H](OC(C)=O)C[C@@]4(C)C3CC[C@@H]4O)[C@]21C` (stereo partly drawn) [(2R,3S,6E,14S,15S,17R)-8,14-dihydroxy-3-(methoxymethyl)-2,15-dimethyl-6-({4-[2-(morpholin-4-yl)ethyl]piperazin-1-yl}methylidene)-5,9-dioxo-4-oxatetracyclo[8.7.0.0^{2,7}.0^{11,15}]heptadeca-1(10),7-dien-17-yl acetate] displayed an IC50 of 0.078 µM.

`COC[C@H]1OC(=O)C(=CN(C)CC(O)CO)C2C(=O)C(=O)C3=C([C@H](OC(C)=O)C[C@@]4(C)C3CC[C@@H]4O)[C@]21C` (stereo partly drawn) [(2R,3S,6E,14S,15S,17R)-6-{[(2,3-dihydroxypropyl)(methyl)amino]methylidene}-8,14-dihydroxy-3-(methoxymethyl)-2,15-dimethyl-5,9-dioxo-4-oxatetracyclo[8.7.0.0^{2,7}.0^{11,15}]heptadeca-1(10),7-dien-17-yl acetate] had an IC50 of 0.199 µM.

As for `COC[C@H]1OC(=O)C(=CN(CCC#N)Cc2ccccc2)C2C(=O)C(=O)C3=C([C@H](OC(C)=O)C[C@@]4(C)C3CC[C@@H]4O)[C@]21C` (stereo partly drawn) [(2R,3S,6E,14S,15S,17R)-6-{[benzyl(2-cyanoethyl)amino]methylidene}-8,14-dihydroxy-3-(methoxymethyl)-2,15-dimethyl-5,9-dioxo-4-oxatetracyclo[8.7.0.0^{2,7}.0^{11,15}]heptadeca-1(10),7-dien-17-yl acetate], the IC50 was 0.444 µM.

Take `COC[C@H]1OC(=O)C(=CN(C)CC(=O)OC(C)(C)C)C2C(=O)C(=O)C3=C([C@H](OC(C)=O)C[C@@]4(C)C3CC[C@@H]4O)[C@]21C` (stereo partly drawn) [tert-butyl 2-({[(2R,3S,6E,14S,15S,17R)-17-(acetyloxy)-8,14-dihydroxy-3-(methoxymethyl)-2,15-dimethyl-5,9-dioxo-4-oxatetracyclo[8.7.0.0^{2,7}.0^{11,15}]heptadeca-1(10),7-dien-6-ylidene]methyl}(methyl)amino)acetate]: the IC50 amounted to 1.58 µM.

On to `COC[C@H]1OC(=O)C(=CN2CCC(N3CCCCC3)CC2)C2C(=O)C(=O)C3=C([C@H](OC(C)=O)C[C@@]4(C)C3CC[C@@H]4O)[C@]21C` (stereo partly drawn) [(2R,3S,6E,14S,15S,17R)-8,14-dihydroxy-3-(methoxymethyl)-2,15-dimethyl-5,9-dioxo-6-{[4-(piperidin-1-yl)piperidin-1-yl]methylidene}-4-oxatetracyclo[8.7.0.0^{2,7}.0^{11,15}]heptadeca-1(10),7-dien-17-yl acetate], for which half-maximal inhibition (IC50) required 0.063 µM.

Regarding `COC[C@H]1OC(=O)C(=CN2CCN(CCCN3CCOCC3)CC2)C2C(=O)C(=O)C3=C([C@H](OC(C)=O)C[C@@]4(C)C3CC[C@@H]4O)[C@]21C` (stereo partly drawn) [(2R,3S,6E,14S,15S,17R)-8,14-dihydroxy-3-(methoxymethyl)-2,15-dimethyl-6-({4-[3-(morpholin-4-yl)propyl]piperazin-1-yl}methylidene)-5,9-dioxo-4-oxatetracyclo[8.7.0.0^{2,7}.0^{11,15}]heptadeca-1(10),7-dien-17-yl acetate], the IC50 amounted to 0.045 µM.

In turn, `COC[C@H]1OC(=O)C(=CN(C)CCCN2CCOCC2)C2C(=O)C(=O)C3=C([C@H](OC(C)=O)C[C@@]4(C)C3CC[C@@H]4O)[C@]21C` (stereo partly drawn) [(2R,3S,6E,14S,15S,17R)-8,14-dihydroxy-3-(methoxymethyl)-2,15-dimethyl-6-({methyl[3-(morpholin-4-yl)propyl]amino}methylidene)-5,9-dioxo-4-oxatetracyclo[8.7.0.0^{2,7}.0^{11,15}]heptadeca-1(10),7-dien-17-yl acetate] registered an IC50 of 0.024 µM.

Still in this assay, the particulars now being: pH 7.5; 22 °C.
The compound `COC[C@H]1OC(=O)C(=CN(C)CCCN(C)C)C2C(=O)C(=O)C3=C([C@H](OC(C)=O)C[C@@]4(C)C3CC[C@@H]4O)[C@]21C` (stereo partly drawn) [(2R,3S,6Z,14S,15S,17R)-6-({[3-(dimethylamino)propyl](methyl)amino}methylidene)-8,14-dihydroxy-3-(methoxymethyl)-2,15-dimethyl-5,9-dioxo-4-oxatetracyclo[8.7.0.0^{2,7}.0^{11,15}]heptadeca-1(10),7-dien-17-yl acetate] had a half-inhibitory concentration (IC50) of 0.0064 µM.

Consider `CCN(C=C1C(=O)O[C@H](COC)[C@]2(C)C3=C(C(=O)C(=O)C12)C1CC[C@H](O)[C@@]1(C)C[C@H]3O)CC` (stereo partly drawn) [(2R,3S,6Z,14S,15S,17R)-6-[(diethylamino)methylidene]-8,14,17-trihydroxy-3-(methoxymethyl)-2,15-dimethyl-4-oxatetracyclo[8.7.0.0^{2,7}.0^{11,15}]heptadeca-1(10),7-diene-5,9-dione], for which the IC50 was determined as 7.85 µM.

On to `COC[C@H]1OC(=O)C(=CNC(C)(C)C)C2C(=O)C(=O)C3=C([C@H](OC(C)=O)C[C@@]4(C)C3CC[C@@H]4O)[C@]21C` (stereo partly drawn) [(2R,3S,6Z,14S,15S,17R)-6-[(tert-butylamino)methylidene]-8,14-dihydroxy-3-(methoxymethyl)-2,15-dimethyl-5,9-dioxo-4-oxatetracyclo[8.7.0.0^{2,7}.0^{11,15}]heptadeca-1(10),7-dien-17-yl acetate], for which the IC50 was more than 10 µM.

As to `CCCCN(C)C=C1C(=O)O[C@H](COC)[C@]2(C)C3=C(C(=O)C(=O)C12)C1CC[C@H](O)[C@@]1(C)C[C@H]3OC(C)=O` (stereo partly drawn) [(2R,3S,6Z,14S,15S,17R)-6-{[butyl(methyl)amino]methylidene}-8,14-dihydroxy-3-(methoxymethyl)-2,15-dimethyl-5,9-dioxo-4-oxatetracyclo[8.7.0.0^{2,7}.0^{11,15}]heptadeca-1(10),7-dien-17-yl acetate], 0.635 µM corresponded to half-maximal inhibition (IC50).

In turn, `COC[C@H]1OC(=O)C(=CN2CCCC2)C2C(=O)C(=O)C3=C([C@H](OC(C)=O)C[C@@]4(C)C3CC[C@@H]4O)[C@]21C` (stereo partly drawn) [(2R,3S,6Z,14S,15S,17R)-8,14-dihydroxy-3-(methoxymethyl)-2,15-dimethyl-5,9-dioxo-6-(pyrrolidin-1-ylmethylidene)-4-oxatetracyclo[8.7.0.0^{2,7}.0^{11,15}]heptadeca-1(10),7-dien-17-yl acetate] displayed an IC50 of 0.496 µM.

In another assay the target is Phosphatidylinositol 3-kinase regulatory subunit beta/4,5-bisphosphate 3-kinase catalytic subunit beta isoform (Homo sapiens, UniProt P42338). Briefly: PI3K Inhibition Assay. The note with it: pH 7.5; 22 °C. On the procedure:
as §1
`COC[C@H]1OC(=O)C(=CN(C)CCCN(C)C)C2C(=O)C(=O)C3=C([C@H](OC(C)=O)C[C@@]4(C)C3CC[C@@H]4O)[C@]21C` (stereo partly drawn) [(2R,3S,6Z,14S,15S,17R)-6-({[3-(dimethylamino)propyl](methyl)amino}methylidene)-8,14-dihydroxy-3-(methoxymethyl)-2,15-dimethyl-5,9-dioxo-4-oxatetracyclo[8.7.0.0^{2,7}.0^{11,15}]heptadeca-1(10),7-dien-17-yl acetate] came in with an IC50 of 0.013 µM.

The next assay deals with Phosphatidylinositol 3-kinase regulatory subunit beta/4,5-bisphosphate 3-kinase catalytic subunit delta isoform (Homo sapiens, UniProt O00329+O00459). Briefly: PI3K Inhibition Assay. The settings on record: pH 7.5; 22 °C. As for the experimental part:
as §1
In turn, `COC[C@H]1OC(=O)C(=CN(C)CCCN(C)C)C2C(=O)C(=O)C3=C([C@H](OC(C)=O)C[C@@]4(C)C3CC[C@@H]4O)[C@]21C` (stereo partly drawn) [(2R,3S,6Z,14S,15S,17R)-6-({[3-(dimethylamino)propyl](methyl)amino}methylidene)-8,14-dihydroxy-3-(methoxymethyl)-2,15-dimethyl-5,9-dioxo-4-oxatetracyclo[8.7.0.0^{2,7}.0^{11,15}]heptadeca-1(10),7-dien-17-yl acetate] showed an IC50 of 0.011 µM.

Another assay addresses Phosphatidylinositol 4,5-bisphosphate 3-kinase catalytic subunit gamma isoform/Phosphoinositide 3-kinase regulatory subunit 5 (Homo sapiens, UniProt P48736). Briefly: PI3K Inhibition Assay. The note with it: pH 7.5; 22 °C. As for the experimental part:
as §1
With `COC[C@H]1OC(=O)C(=CN(C)CCCN(C)C)C2C(=O)C(=O)C3=C([C@H](OC(C)=O)C[C@@]4(C)C3CC[C@@H]4O)[C@]21C` (stereo partly drawn) [(2R,3S,6Z,14S,15S,17R)-6-({[3-(dimethylamino)propyl](methyl)amino}methylidene)-8,14-dihydroxy-3-(methoxymethyl)-2,15-dimethyl-5,9-dioxo-4-oxatetracyclo[8.7.0.0^{2,7}.0^{11,15}]heptadeca-1(10),7-dien-17-yl acetate], the IC50 is 0.008 µM.

Source of the values: BindingDB's records for doi:10.1021/jm7012858 (Wyeth Research, 2008).
